This is an account of results in US7655629B2, “Peptides and their use for the treatment of HIV infections” (priority 2002, dated 2010).

For data set [1] the following is noted: dog, plasma.
Protocol: (§2) Plasma was spiked resulting in concentrations of 40 μg/ml and stored at 37° C. At time points 0, 15, 30, 45, 60, 120, 180, 240 and 300 min samples of 20 μl were taken. The plasma was immediately mixed for precipitation with the two-fold volume of acetonitrile containing 0.15% (w/v) n-nonyl-β-D-glucopyranoside. Following centrifugation the supernatants were mixed with the two-fold volume of 0.1% (v/v) trifluroacetic acid. Twenty μl of these solutions were analyzed by LC-MS. Chromatography was performed using a gradient with the following eluents: eluent A: water containing 0.06% trifluroacetic acid (v/v), eluent B: acetonitrile/water 80:20 (v/v; with 0.05% trifluoroacetic acid; v/v). A C18 precolumn was used in combination with a C18 separation column (300 Å, 5 μm, 150×1 mm inner diameter) at a flow rate of 30 μl/min. HPLC eluates were ionized by the electrospray technique of a LCQ classic mass spectrometer. Areas of the detected peaks of the peptides of the present invention were measured and used for quantification by external calibration. The calibration curve was linear over a range from 0.5 μg/ml to 250 μg/ml plasma. Half life—defined as the period for a concentration decrease to 50% of the initial concentration—was calculated from the slope of an extrapolated curve plotting the relative peptide concentration at a given time point (logarithm scale) against the incubation time. These experiments allowed the quantitative analysis of peptide concentration in plasma.
The conditions of data set [2]: rat, plasma.
Protocol: as §2
The conditions of data set [3]: human, plasma.
Protocol: as §2
The conditions of data set [4]: cynomolgus monkey, plasma.
Protocol: as §2
In the next data set the test system is HIV-1 NL4-3 DTV. The following applies: read-out: IC50 DTV, P4-CCR5 cells, peptide 2 h before infection, readout three days after infection. In short, it runs like this:
(§1)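 P4-CCR5 cells (CD4, CCR5, CXCR4, HIV-1 promoter-driven β-galactosidase) pretreated 2 h with peptide, then infected with virus containing 1 ng p24 antigen and incubated overnight. Cells washed and cultured without peptide; three days post-infection infectivity read by chemiluminescent β-galactosidase assay, in quintuplicate.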

In a further data set the test system is X4-tropic HIV-1 NL4-3. The following applies: for IC50: read-out: IC50 NL4-3, P4-CCR5 cells, HIV-1 NL4-3, peptide 2 h before infection, readout three days after infection. In short, it runs like this:
as §1

Usually half-life stands for how long it takes for the measured level to halve. Read a low half-life as fast loss. The term IC50 denotes the concentration at which inhibition is half-maximal.

Like-named read-outs stand apart in the source and are kept apart here. Positions of bridges follow the written chain, without caps; N, C: chain ends. Non-standard residues stand in square brackets, D forms with d. Residues, ends and D or L forms follow the SMILES beside them. Chains are numbered I, II in the order given. Dip = N[C@H](C(=O)O)C(c1ccccc1)c1ccccc1; Tic = O=C(O)[C@@H]1Cc2ccccc2CN1; dTic = O=C(O)[C@H]1Cc2ccccc2CN1

Take `CC[C@H](C)[C@H](NC(=O)[C@H](C)NC(=O)[C@H](CCC(=O)O)NC(=O)[C@@H](N)CC(C)C)C(=O)N1CCC[C@H]1C(=O)N[C@H]1CSSC[C@@H](C(=O)N[C@H](C(=O)N[C@@H](C)C(=O)N2Cc3ccccc3C[C@@H]2C(=O)N[C@@H](CC(N)=O)C(=O)N[C@@H](CCCCN)C(=O)N2CCC[C@H]2C(=O)N2Cc3ccccc3C[C@@H]2C(=O)N[C@@H](Cc2ccccc2)C(=O)N[C@H](C(=O)N[C@@H](Cc2ccccc2)C(=O)O)C(C)C)C(C)C)NC(=O)[C@@H]2CCCN2C(=O)[C@@H]2CCCN2C(=O)[C@H]([C@@H](C)CC)NC(=O)[C@H](CO)NC1=O` [VIR-166, LEAIPCSIPPCVA(D-Tic)NKP(D-Tic)FVF] (H-LEAIPCSIPPCVA[dTic]NKP[dTic]FVF-OH; disulfide 6-11): the half-life in data set [1] is 11 h; in data set [2], 0.4 h; in data set [3], 7.6 h; in data set [4], 12.1 h. Further, the figures for the IC50 in the data set with HIV-1 NL4-3 DTV and with X4-tropic HIV-1 NL4-3 were 506 nM and 356 nM, respectively.

Take `CC[C@H](C)[C@H](NC(=O)[C@H](C)NC(=O)[C@H](CCC(=O)O)NC(=O)[C@@H](N)CC(C)C)C(=O)N1CCC[C@H]1C(=O)N[C@@H](CCSC)C(=O)N[C@@H](CO)C(=O)N[C@H](C(=O)N1CCC[C@H]1C(=O)N1CCC[C@@H]1C(=O)N[C@@H](CCC(=O)O)C(=O)N[C@H](C(=O)N[C@@H](C)C(=O)N[C@@H](Cc1ccccc1)C(=O)N[C@@H](CC(N)=O)C(=O)N[C@@H](CCCCN)C(=O)N1CCC[C@H]1C(=O)N[C@@H](Cc1ccccc1)C(=O)N[C@H](C(=O)N[C@@H](Cc1ccccc1)C(=O)O)C(C)C)C(c1ccccc1)c1ccccc1)[C@@H](C)CC` [VIR-261, LEAIPMSIPpE(3,3-diphenylalanine)AFNKPFVF] (H-LEAIPMSIP[dP]E[Dip]AFNKPFVF-OH): the half-life in data set [1] was 15.1 h; in data set [2], 0.2 h; in data set [3] it was 7 h; in data set [4], 6.5 h. Moreover, the IC50 in the data set on HIV-1 NL4-3 DTV stood at 1030 nM; in the data set on X4-tropic HIV-1 NL4-3 it was 538 nM.

With `CC[C@H](C)[C@H](NC(=O)[C@H](C)NC(=O)[C@H](CCC(=O)O)NC(=O)[C@@H](N)CC(C)C)C(=O)N1CCC[C@H]1C(=O)N[C@@H](CCSC)C(=O)N[C@@H](CO)C(=O)N[C@H](C(=O)N1CCC[C@H]1C(=O)N1CCC[C@@H]1C(=O)N[C@@H](CCC(=O)O)C(=O)N[C@H](C(=O)N[C@@H](C)C(=O)N[C@@H](Cc1ccccc1)C(=O)N[C@@H](CC(N)=O)C(=O)N[C@@H](CCCCN)C(=O)N1Cc2ccccc2C[C@H]1C(=O)N[C@@H](Cc1ccccc1)C(=O)N[C@H](C(=O)N[C@@H](Cc1ccccc1)C(=O)O)C(C)C)C(C)C)[C@@H](C)CC` [VIR-268, LEAIPMSIPpEVAFNK(L-Tic)FVF] (H-LEAIPMSIP[dP]EVAFNK[Tic]FVF-OH), the IC50 in the data set on HIV-1 NL4-3 DTV was 1480 nM; in the data set on X4-tropic HIV-1 NL4-3, 1730 nM.

As for `CC[C@H](C)[C@H](NC(=O)[C@H](C)NC(=O)[C@H](CCC(=O)O)NC(=O)[C@@H](N)CC(C)C)C(=O)N1CCC[C@H]1C(=O)N[C@@H](CCSC)C(=O)N[C@H]1CSSC[C@@H](C(=O)N[C@@H](Cc2ccccc2)C(=O)N[C@@H](Cc2ccccc2)C(=O)N[C@@H](CC(N)=O)C(=O)N[C@@H](CCCCN)C(=O)N2CCC[C@H]2C(=O)N[C@@H](Cc2ccccc2)C(=O)N[C@H](C(=O)N[C@@H](Cc2ccccc2)C(=O)O)C(C)C)NC(=O)[C@H](CCC(=O)O)NC(=O)[C@@H]2CCCN2C(=O)[C@@H]2CCCN2C(=O)[C@H]([C@@H](C)CC)NC1=O` [VIR-273] (H-LEAIPMCIPPECFFNKPFVF-OH; disulfide 7-12), the half-life in data set [1] was 12.4 h; in data set [2] it was 0.1 h; in data set [3], 4.2 h; in data set [4], 3.6 h. The IC50 in the data set on HIV-1 NL4-3 DTV worked out at 1100 nM; in the data set on X4-tropic HIV-1 NL4-3, 332 nM.

In the case of `CC[C@H](C)[C@H](NC(=O)[C@H](C)NC(=O)[C@H](CCC(=O)O)NC(=O)[C@@H](N)CC(C)C)C(=O)N1CCC[C@H]1C(=O)N[C@@H](CCSC)C(=O)N[C@H]1CSSC[C@@H](C(=O)N[C@@H](CC(C)C)C(=O)N[C@@H](Cc2ccccc2)C(=O)NCC(=O)N[C@@H](CCCCN)C(=O)N2CCC[C@H]2C(=O)N[C@@H](Cc2ccccc2)C(=O)N[C@H](C(=O)N[C@@H](Cc2ccccc2)C(=O)O)C(C)C)NC(=O)[C@H](CCC(=O)O)NC(=O)[C@@H]2CCCN2C(=O)[C@@H]2CCCN2C(=O)[C@H]([C@@H](C)CC)NC1=O` [VIR-274] (H-LEAIPMCIPPECLFGKPFVF-OH; disulfide 7-12), the half-life was 9.5 h in data set [1], 0.1 h in data set [2], 2 h in data set [3] and 2.8 h in data set [4]. For the same molecule, the IC50 was 1420 nM in the data set on HIV-1 NL4-3 DTV and 576 nM with X4-tropic HIV-1 NL4-3.

`CC[C@H](C)[C@H](NC(=O)[C@H](C)NC(=O)[C@H](CCC(=O)O)NC(=O)[C@@H](N)CC(C)C)C(=O)N1CCC[C@H]1C(=O)N[C@H]1CSSC[C@@H](C(=O)N[C@H](C(=O)N[C@@H](Cc2ccccc2)C(=O)N[C@@H](Cc2ccccc2)C(=O)NCC(=O)N[C@@H](CCCCN)C(=O)N2CCC[C@H]2C(=O)N[C@@H](Cc2ccccc2)C(=O)N[C@H](C(=O)N[C@@H](Cc2ccccc2)C(=O)O)C(C)C)C(C)C)NC(=O)[C@@H]2CCCN2C(=O)[C@@H]2CCCN2C(=O)[C@H]([C@@H](C)CC)NC(=O)[C@H](CO)NC1=O` [VIR-344] (H-LEAIPCSIPPCVFFGKPFVF-OH; disulfide 6-11): the half-life in data set [1] is 6.6 h; in data set [2], 0.1 h; in data set [3] it was 7 h; in data set [4] it was 10.5 h. Further, the results for the IC50 in the data set with HIV-1 NL4-3 DTV and in the data set on X4-tropic HIV-1 NL4-3 were 448 nM and 348 nM, respectively.

On to `CC[C@H](C)[C@H](NC(=O)[C@H](C)NC(=O)[C@H](CCC(=O)O)NC(=O)[C@@H](N)CC(C)C)C(=O)N1CCC[C@H]1C(=O)N[C@@H](CSSC[C@H](NC(=O)[C@@H]1CCCN1C(=O)[C@@H](NC(=O)[C@H](C)NC(=O)[C@H](CCC(=O)O)NC(=O)[C@@H](N)CC(C)C)[C@@H](C)CC)C(=O)N[C@@H](CO)C(=O)N[C@H](C(=O)N1CCC[C@H]1C(=O)N1CCC[C@H]1C(=O)N[C@@H](CCC(=O)O)C(=O)N[C@@H](Cc1ccccc1)C(=O)N[C@@H](CC(C)C)C(=O)N[C@@H](Cc1ccccc1)C(=O)NCC(=O)N[C@@H](CCCCN)C(=O)N1CCC[C@H]1C(=O)N[C@@H](Cc1ccccc1)C(=O)N[C@H](C(=O)N[C@@H](Cc1ccccc1)C(=O)O)C(C)C)[C@@H](C)CC)C(=O)N[C@@H](CO)C(=O)N[C@H](C(=O)N1CCC[C@H]1C(=O)N1CCC[C@H]1C(=O)N[C@@H](CCC(=O)O)C(=O)N[C@@H](Cc1ccccc1)C(=O)N[C@@H](CC(C)C)C(=O)N[C@@H](Cc1ccccc1)C(=O)NCC(=O)N[C@@H](CCCCN)C(=O)N1CCC[C@H]1C(=O)N[C@@H](Cc1ccccc1)C(=O)N[C@H](C(=O)N[C@@H](Cc1ccccc1)C(=O)O)C(C)C)[C@@H](C)CC` [VIR-576] (I: H-LEAIPCSIPPEFLFGKPFVF-OH / II: H-LEAIPCSIPPEFLFGKPFVF-OH; disulfide I:6-II:6), for which the half-life in data set [1] was 12.6 h; in data set [2], 2.6 h; in data set [3] it was 5.8 h; in data set [4], 3.8 h.

H-LEAIPMSIPPEFAFNKDFVF-OH [VIR-243]: the IC50 was determined as 1980 nM in the data set on HIV-1 NL4-3 DTV and 2160 nM in the data set with X4-tropic HIV-1 NL4-3.

In the case of H-LEAIPMSIPPEIAFNKPFVF-OH [VIR-184], the figures for the IC50 in the data set on HIV-1 NL4-3 DTV and with X4-tropic HIV-1 NL4-3 were 5390 nM and 1990 nM, respectively. Further, in the data set with X4-tropic HIV-1 NL4-3 (from IC50 against two HIV-1 strains (NL4-3, DTV)), the “increase in anti-HIV activity in comparison to VIRIP” value came to 4 fold.

As to H-LEAIPMSIPPELAFAKPFVF-OH [VIR-182], the IC50 in the data set with HIV-1 NL4-3 DTV worked out at 2970 nM; in the data set with X4-tropic HIV-1 NL4-3, 2250 nM.

Turning to H-LEAIPMSIPPEVFFGKPFVF-OH [VIR-170], the figures for the half-maximal inhibitory concentration (IC50) in the data set on HIV-1 NL4-3 DTV and with X4-tropic HIV-1 NL4-3 were 2000 nM and 1520 nM, respectively.
